This is an account of results in patent US9549558B2, “Herbicidal azines” (BASF SE, priority 2012, dated 2017).

Type in all cases: in vivo
Assay [1] relates to POLCO (Polygonum convolvulus). Put plainly: greenhouse post-emergence herbicidal test. The text has this:
(§1) The culture containers used were plastic flowerpots containing loamy sand with approximately 3.0% of humus as the substrate. The seeds of the test plants were sown separately for each species.
(§2) For the post-emergence treatment, the test plants were first grown to a height of 3 to 15 cm, depending on the plant habit, and only then treated with the active ingredients which had been suspended or emulsified in water. For this purpose, the test plants were either sown directly and grown in the same containers, or they were first grown separately as seedlings and transplanted into the test containers a few days prior to treatment.
(§3) Depending on the species, the plants were kept at 10-25° C. or 20-35° C., respectively.
(§4) The test period extended over 2 to 4 weeks. During this time, the plants were tended, and their response to the individual treatments was evaluated.
(§5) Evaluation was carried out using a scale from 0 to 100. 100 means no emergence of the plants, or complete destruction of at least the aerial moieties, and 0 means no damage, or normal course of growth. A moderate herbicidal activity is given at values of at least 60, a good herbicidal activity is given at values of at least 70, and a very good herbicidal activity is given at values of at least 85.
(§6) The plants used in the greenhouse experiments were of the following species: […]

Assay [2] deals with AMARE (Amaranthus retroflexus). Description: greenhouse post-emergence herbicidal test.
Source text: as §1, §2, §3, §4, §5, §6

The test system of assay [3] is CHEAL (Chenopodium album). Put plainly: greenhouse post-emergence herbicidal test.
Source text: as §1, §2, §3, §4, §5, §6

For assay [4], the system named is ABUTH (Abutilon theophrasti). Description: greenhouse post-emergence herbicidal test.
Source text: as §1, §2, §3, §4, §5, §6

Another assay relates to VIOAR (Viola arvensis). Put plainly: greenhouse pre-emergence herbicidal test.
Source text: as §1
(§7) For the pre-emergence treatment, the active ingredients, which had been suspended or emulsified in water, were applied directly after sowing by means of finely distributing nozzles. The containers were irrigated gently to promote germination and growth and subsequently covered with transparent plastic hoods until the plants had rooted. This cover caused uniform germination of the test plants, unless this had been impaired by the active ingredients.
as §3, §4, §5, §6

Assay [5] has as its system CAPBP (Capsella bursa-pastoris). Description: greenhouse pre-emergence herbicidal test. The note with it: CAPBP.
Source text: as §1, §7, §3, §4, §5, §6

The subject of the next assay is SETVI (Setaria viridis). Put plainly: greenhouse pre-emergence herbicidal test. The note with it: 0.0625 kg/ha.
Source text: as §1, §7, §3, §4, §5, §6

In the next assay the test system is STEME (Stellaria media). Put plainly: greenhouse pre-emergence herbicidal test.
Source text: as §1, §7, §3, §4, §5, §6

With `CC(C)c1nc(N)nc(Nc2c(F)c(F)cc(F)c2F)n1` [Example 6], the results for the herbicidal activity result in assay [1] (0.031 kg/ha) and in assay [2] (0.031 kg/ha) were “good (a good herbicidal activity is given at values of at least 70)” and “very good (a very good herbicidal activity is given at values of at least 85)”, respectively.

For `CC(F)(F)c1nc(N)nc(Nc2c(F)c(F)cc(F)c2F)n1` [Example 8], the herbicidal activity result in assay [3] (0.062 kg/ha) and in assay [4] (0.062 kg/ha) was “very good (a very good herbicidal activity is given at values of at least 85)” each time.

On to `CC(F)c1nc(N)nc(Nc2c(F)cccc2F)n1` (stereo not drawn) [Example 12], for which the herbicidal activity result (in the assay on VIOAR (Viola arvensis) (0.125 kg/ha); in assay [5] (0.125 kg/ha)) was “very good (a very good herbicidal activity is given at values of at least 85)” each time.

Regarding `CC(F)c1nc(N)nc(Nc2c(F)cc(F)cc2F)n1` (stereo not drawn) [Example 15], the herbicidal activity entry with SETVI (Setaria viridis) is listed as “moderate (A moderate herbicidal activity is given at values of at least 60)”.

On to `CC(F)c1nc(N)nc(Nc2c(F)c(F)cc(F)c2F)n1` (stereo not drawn) [Example 17], for which the herbicidal activity result in assay [1] (0.125 kg/ha) and in assay [4] (0.125 kg/ha) was “very good (a very good herbicidal activity is given at values of at least 85)” each time.

Regarding `CC(F)c1nc(N)nc(Nc2c(F)cc(Br)cc2F)n1` (stereo not drawn) [Example 19], the herbicidal activity entry in the assay with VIOAR (Viola arvensis) (0.125 kg/ha) is “good (a good herbicidal activity is given at values of at least 70)”.

Regarding `CC(C)(F)c1nc(N)nc(Nc2ccc(F)cc2F)n1` [Example 22], in the assay on VIOAR (Viola arvensis) (0.125 kg/ha), the herbicidal activity entry was “good (a good herbicidal activity is given at values of at least 70)”.

For `CC(C)(F)c1nc(N)nc(Nc2cc(F)cc(F)c2)n1` [Example 25], the herbicidal activity entry with VIOAR (Viola arvensis) (0.125 kg/ha) is recorded as “very good (a very good herbicidal activity is given at values of at least 85)”.

For the compound `CC(C)(F)c1nc(N)nc(Nc2ccc(F)c(F)c2F)n1` [Example 26], the results for the herbicidal activity result (in the assay with VIOAR (Viola arvensis) (0.125 kg/ha); in assay [5] (0.125 kg/ha)) were “very good (a very good herbicidal activity is given at values of at least 85)” and “good (a good herbicidal activity is given at values of at least 70)”, respectively.

As for `CC(C)(F)c1nc(N)nc(Nc2c(F)cc(F)cc2F)n1` [Example 28], the herbicidal activity entry in assay [2] (0.125 kg/ha) and in assay [4] (0.125 kg/ha) was “very good (a very good herbicidal activity is given at values of at least 85)” each time.

Regarding `CC(C)(F)c1nc(N)nc(Nc2cc(F)c(F)c(F)c2)n1` [Example 29], in the assay with VIOAR (Viola arvensis) (0.125 kg/ha), the herbicidal activity entry is listed as “moderate (A moderate herbicidal activity is given at values of at least 60)”.

In the case of `CC(C)(F)c1nc(N)nc(Nc2c(F)ccc(F)c2Cl)n1` [Example 36], the herbicidal activity result in assay [2] (0.062 kg/ha) and in assay [4] (0.062 kg/ha) was “very good (a very good herbicidal activity is given at values of at least 85)” in each case.

`CC(C)(F)c1nc(N)nc(Nc2c(F)cccc2C#N)n1` [Example 38]: the herbicidal activity result in assay [3] (0.125 kg/ha) and in assay [2] (0.125 kg/ha) was “very good (a very good herbicidal activity is given at values of at least 85)” each time.

Regarding `Cc1ccc(F)c(Nc2nc(N)nc(C(C)(C)F)n2)c1F` [Example 40], the herbicidal activity result in assay [3] (0.031 kg/ha) and in assay [2] (0.031 kg/ha) was “very good (a very good herbicidal activity is given at values of at least 85)” throughout.

Regarding `COc1ccc(F)c(F)c1Nc1nc(N)nc(C(C)(C)F)n1` [Example 61], the herbicidal activity entry in assay [1] (0.062 kg/ha) and in assay [2] (0.062 kg/ha) was “very good (a very good herbicidal activity is given at values of at least 85)” each time.

On to `CC(C)(F)c1nc(N)nc(Nc2c(F)cc(C#N)cc2F)n1` [Example 71], for which the herbicidal activity result in assay [1] (125 g/ha) is listed as “good (a good herbicidal activity is given at values of at least 70)”; in assay [3] (125 g/ha), “very good (a very good herbicidal activity is given at values of at least 85)”.

`CC(C)(C)c1nc(N)nc(Nc2c(F)ccc(Cl)c2F)n1` [Example 81]: the herbicidal activity entry (with STEME (Stellaria media) (125 g/ha); in the assay on VIOAR (Viola arvensis) (125 g/ha); in assay [5] (125 g/ha)) was “very good (a very good herbicidal activity is given at values of at least 85)” throughout.

Turning to `CC(C)(Cl)c1nc(N)nc(Nc2c(F)ccc(Cl)c2F)n1` [Example 108], the herbicidal activity result (with STEME (Stellaria media) (250 g/ha); in the assay on VIOAR (Viola arvensis) (250 g/ha); in assay [5] (250 g/ha)) was “very good (a very good herbicidal activity is given at values of at least 85)” each time.

Regarding `Nc1nc(Nc2c(F)ccc(Cl)c2F)nc(C(F)(F)F)n1` [Example 126], the herbicidal activity result in assay [2] (1000 g/ha) is recorded as “very good (a very good herbicidal activity is given at values of at least 85)”; in assay [4] (1000 g/ha), “good (a good herbicidal activity is given at values of at least 70)”.

For the compound `Nc1nc(Nc2c(F)ccc(F)c2F)nc(C(F)(F)F)n1` [Example 127], the herbicidal activity entry in assay [1] (1000 g/ha) is reported as “good (a good herbicidal activity is given at values of at least 70)”; in assay [3] (1000 g/ha) it was “very good (a very good herbicidal activity is given at values of at least 85)”; in assay [2] (1000 g/ha) it was “very good (a very good herbicidal activity is given at values of at least 85)”.

Regarding `Nc1nc(Nc2c(F)c(F)cc(F)c2F)nc(C(F)(F)F)n1` [Example 132], the herbicidal activity result in assay [1] (500 g/ha), in assay [3] (500 g/ha) and in assay [2] (500 g/ha) was “very good (a very good herbicidal activity is given at values of at least 85)” each time.

Take `CC(F)(F)c1nc(N)nc(Nc2c(F)cc(F)cc2F)n1` [Example 138]: the herbicidal activity entry (in the assay with STEME (Stellaria media) (125 g/ha); with VIOAR (Viola arvensis) (125 g/ha); in assay [5] (125 g/ha)) was “very good (a very good herbicidal activity is given at values of at least 85)” each time.

On to `Nc1nc(Nc2c(F)cc(F)cc2F)nc(C2CC2)n1` [Example 143], for which the figures for the herbicidal activity entry in assay [1] (500 g/ha), in assay [3] (500 g/ha) and in assay [2] (500 g/ha) were “good (a good herbicidal activity is given at values of at least 70)”, “very good (a very good herbicidal activity is given at values of at least 85)” and “very good (a very good herbicidal activity is given at values of at least 85)”, respectively.

As for `Nc1nc(Nc2c(F)c(F)c(F)c(F)c2F)nc(C(F)(F)Cl)n1` [Example 146], the herbicidal activity entry in assay [1] (500 g/ha), in assay [3] (500 g/ha) and in assay [2] (500 g/ha) was “very good (a very good herbicidal activity is given at values of at least 85)” throughout.

Consider `Nc1nc(Nc2c(F)c(F)c(Br)c(F)c2F)nc(C2CCCCC2)n1` [Example 209], for which the herbicidal activity result in the assay with STEME (Stellaria media) (250 g/ha) is “very good (a very good herbicidal activity is given at values of at least 85)”; in the assay with VIOAR (Viola arvensis) (250 g/ha), “good (a good herbicidal activity is given at values of at least 70)”; in assay [5] (250 g/ha), “good (a good herbicidal activity is given at values of at least 70)”.

With `Nc1nc(Nc2c(F)c(F)c(Br)c(F)c2F)nc(C2CCCC2)n1` [Example 210], the herbicidal activity entry (in the assay with STEME (Stellaria media) (250 g/ha); in the assay with VIOAR (Viola arvensis) (250 g/ha); in assay [5] (250 g/ha)) was “very good (a very good herbicidal activity is given at values of at least 85)” each time.

Regarding `Nc1nc(C2CC2)nc(N(C(=O)C2CC2)c2c(F)c(F)cc(F)c2F)n1` [Example 285], the herbicidal activity entry in assay [3] (62 g/ha) was “good (a good herbicidal activity is given at values of at least 70)”; in assay [2] (62 g/ha), “very good (a very good herbicidal activity is given at values of at least 85)”.

Consider `Nc1nc(C2=CCCCC2)nc(N(C(=O)C2=CCCCC2)c2c(F)c(F)c(F)c(F)c2F)n1` [Example 303], for which the herbicidal activity result in assay [2] (500 g/ha) and in assay [4] (500 g/ha) was “good (a good herbicidal activity is given at values of at least 70)” throughout.
